The results in this text go back to patent US8927659B2, “Resorbable phenolic polymers” (TYRX, Inc., priority 2005, dated 2015).

The solubility is how much of the substance goes into solution per volume.

In brackets after ≈: the same amount, converted by molar mass.

The nature of this data set: Water solubility of monomer building blocks (Tables 1 and 2). In kind it is physicochemical. To be noted: for solubility: water.

Take `NC(C(=O)O)c1ccc(O)cc1` (centres unmarked) [Hydroxyphenyl glycine]: the solubility was 5000 µg/mL (≈ 29.9 mM).

For `O=C(O)COCC(=O)O` [Diglycolic acid], the “Water Solubility” value (Table 2, unit not given) is on record as “Water soluble”.

For the setting “Table 2, unit inferred”, `O=C(O)CCc1ccc(O)cc1` [DAT] gave a solubility of 1630 µg/mL (≈ 9.81 mM).

`O=C(O)CCCC(=O)O` [Glutaric acid]: for the setting “Table 2, unit inferred”, the solubility was 640000 µg/mL (≈ 4840 mM). Against the preceding compound, the solubility is about 390-fold higher.

Where the note is “Table 2, unit inferred”, `O=C(O)c1ccc(O)cc1` [4-hydroxy benzoic acid] had a solubility of 8000 µg/mL (≈ 57.9 mM).
